US10918108B2, “Synergistic herbicidal composition” (JIANGSU ROTAM CHEMISTRY CO., LTD, priority 2016, dated 2021)

Test system: gramineous weeds, broadleaf weeds and sedge weeds
Experiment: Weed control efficacy, greenhouse pot test, survival rate compared with Colby value (Table 1)
Type: in vivo
From the text: The desired efficacy of the combination of three active compounds can be calculated through “Colby formula” as follows (S. R. Colby, “Calculating Synergistic and Antagonistic Responses of Herbicide Combinations, Weeds 1967, 15, 20-22): if
A is the activity of active compound A when used in an amount of mg/ha or concentrate of mppm, expressed as a percentage of untreated control;
B is the activity of active compound B when used in an amount of ng/ha or concentrate of nppm, expressed as a percentage of untreated control;
C is the activity of active compound C when used in an amount of hg/ha or concentrate of hppm, expressed as a percentage of untreated control;
E0 is the anticipated activity of active compounds A, B and C when used in an amount of m, n, h g/ha or concentrate of m, n, h ppm, E0=A×B×C/(100^(N-1)) N=3;
If the observed actual activity E is greater than the anticipated activity (E0), then the composition has synergistic effect.
If the observed actual efficiency of weed control (E) through the biology test is greater than the anticipated value (E0) as calculated via Colby's equation, then it represents that the efficacy of herbicidal composition is greater than the sum of efficacy of each component, which means the composition has synergistic effect.
Use stem and leaf treatment for potted grown plant(NY/T 1155.4-2006): fill a plastic pot (6 cm height, 9 cm diameter) with a quantity of soil and sow 15 to 20 seeds of monocotyledonous weeds and dicotyledonous weeds in the plastic pot, cover it with 0.5 to 1 cm thick of fine soil and then put it in greenhouse for cultivation. When weeds grow to the 2 to 4 leave stage, conduct the stem and leaf spray treatment with 1 mL herbicidal solution on each pot and repeat four times for each treatment and leave some pots untreated as control group. Keep the treated pots in a greenhouse for cultivation and observe the growing status of target weeds periodically. Conduct the visual test on the target weeds regarding the damage symptoms and growth inhibition effect after 21 days. Weigh up the fresh weight above the ground or plant fresh weight and evaluate the toxicity of the herbicidal formulation on target weeds based on the fresh weight inhibition rate of the target.
Prepare the following formulations according to specific weight percentages: 1. Pyroxasulfone; 2. Mesotrione; 3 Atrazine; 4. Pyroxasulfone+Mesotrione; 5. Pyroxasulfone+Atrazine; 6. Mesotrione+Atrazine; 7. Pyroxasulfone+Mesotrione+Atrazine. After that, dilute above formulations with water to obtain diluted formulations.
Conduct visual assessment the damage symptom and growth inhibition status of target weeds after 21 days. Weigh up the fresh weight above the ground and calculate the inhibition rate of fresh weight (%).
Anticipated effects of the special combined three active components can be calculated through so called “Colby formula”. If the actual efficiency of weed control observed during the biology test exceeds the anticipated value […] calculated by Colby's formula, then it represents that the efficacy of herbicidal composition is greater than the sum of efficacy of each component, which means the composition has synergistic effect.
The synergistic herbicidal composition of present invention has conducted test on the following important harmful plants (gramineous weeds, broadleaf weeds, sedge weeds) with wide herbicidal spectrum: Echinochloa oryzicola, Digitaria spp., Stellaria media, Amaranthus retroflexus, Fallopia(ex Polygonum) Convolvulus, Abuthilon theophrasti, Sagittariatrifolia, Oriental Waterplantain Rhizome, Herb of Pygmy Arrowhead, Monochoria korsakowii, Lindernia procumbens, Solanum nigrum L., Scirpus juncoides Roxb, Cyperus difformis L., Chenopodium alum L., Avena fatua L. and Galium aparine L. var. tenerum Gren. et (Godr.) Rebb.

Structure (SMILES) | Actual survival rate (%) (application rate 1 g/ha) | Actual survival rate (%) (application rate 25 g/ha) | Actual survival rate (%) (application rate 50 g/ha) | Actual survival rate (%) (application rate 100 g/ha) | Actual survival rate (%) (application rate 5 g/ha) | Actual survival rate (%) (application rate 10 g/ha)
CS(=O)(=O)c1ccc(C(=O)C2C(=O)CCCC2=O)c([N+](=O)[O-])c1 [Mesotrione, 2-(4-mesyl-2-nitrobenzoyl)cyclohexane-1,3-dione] | 100% | 87% | 74% |  |  | 
CCNc1nc(Cl)nc(NC(C)C)n1 [Atrazine, 2-chloro-4-ethylamino-6-isopropylamino-1,3,5-triazine] | 100% |  | 100% | 67% |  | 
Cn1nc(C(F)(F)F)c(CS(=O)(=O)C2=NOC(C)(C)C2)c1OC(F)F [Pyroxasulfone, 3-[5-(difluoromethoxy)-1-methyl-3-(trifluoromethyl)pyrazol-4-ylmethylsulfonyl]-4,5-dihydro-5,5-dimethyl-1,2-oxazole] | 89% |  |  |  | 78% | 60%
